{"source": "patent US20120122906A1", "about": "“NOVEL SULFONAMIDE DERIVATIVE AND PHARMACEUTICAL PRODUCT CONTAINING SAME” (KOWA COMPANY, LTD., priority 2009, published 2012)", "key": {"[1]": {"target": "T1, angiotensin II type 1 receptor (Oryctolagus cuniculus, UniProt P34976)", "T1 construct": "By using a specimen of isolated rabbit blood vessels; from tissue; host or cells: rabbit thoracic aorta ring (New Zealand White, male)", "T1 sequence (P34976 1-359)": "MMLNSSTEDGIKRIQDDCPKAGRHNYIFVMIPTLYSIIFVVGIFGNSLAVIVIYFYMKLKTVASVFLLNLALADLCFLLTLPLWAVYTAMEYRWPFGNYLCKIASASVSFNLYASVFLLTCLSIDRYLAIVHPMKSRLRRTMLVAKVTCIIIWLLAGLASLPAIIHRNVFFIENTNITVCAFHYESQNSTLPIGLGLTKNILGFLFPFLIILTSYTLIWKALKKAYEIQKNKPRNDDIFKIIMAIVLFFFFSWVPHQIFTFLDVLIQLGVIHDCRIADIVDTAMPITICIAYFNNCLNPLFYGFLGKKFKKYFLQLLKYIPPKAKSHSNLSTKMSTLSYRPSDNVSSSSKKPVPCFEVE", "assay": "Angiotensin II antagonistic activity in isolated rabbit blood vessels (angiotensin II-induced contraction of thoracic aorta ring)", "settings": "0.1 μM compound, angiotensin II (10 nM)-induced contraction, read-out: Angiotensin II activity inhibition rate (%) at 0.1 μM concentration", "description": "By using a specimen of isolated rabbit blood vessels, antagonistic activity of the compounds of the invention against angiotensin II type 1 receptor was estimated from a dose-response curve of angiotensin II-induced blood vessel contraction. Specifically, the specimen of thoracic aorta ring of a rabbit (New Zealand White: male, 2.4 to 3.0 kg) was suspended in a magnus bath filled with Krebs-Henseleite buffer (composition: 118 mM NaCl, 4.7 mM KCl, 2.55 mM CaCl2, 1.18 mM MgSO4, 1.18 mM KH2PO4, 24.88 mM NaHCO3, and 11.1 mM D-glucose), and angiotensin II (10 nM)-induced contraction was obtained in the presence of the compounds of each example (1 nmol to 10 μmol/L). During the measurement, the inside temperature of the magnus bath was maintained at 37° C. and the bath was continuously ventilated with a sufficient amount of mixed gas (95% O2 and 5% CO2). The angiotensin II-induced contraction was converted into a relative value (%) that is based on the angiotensin II (10 nM)-induced contraction in the absence of the compounds of each example. From the concentration-response curve obtained therefrom, 50% inhibition concentration (IC50 value) was calculated by using SAS Preclinical Package Ver 5.0 (trade name, manufactured by SAS institute Japan Co., Tokyo, Japan), which is a statistical analysis program."}, "human PPARγ2": {"target": "T2, human PPARγ2 (Homo sapiens, UniProt P37231)", "T2 construct": "the amino acids 182 to 505 of human PPARγ2; expressed in transfected cells", "T2 sequence (P37231 182-505)": "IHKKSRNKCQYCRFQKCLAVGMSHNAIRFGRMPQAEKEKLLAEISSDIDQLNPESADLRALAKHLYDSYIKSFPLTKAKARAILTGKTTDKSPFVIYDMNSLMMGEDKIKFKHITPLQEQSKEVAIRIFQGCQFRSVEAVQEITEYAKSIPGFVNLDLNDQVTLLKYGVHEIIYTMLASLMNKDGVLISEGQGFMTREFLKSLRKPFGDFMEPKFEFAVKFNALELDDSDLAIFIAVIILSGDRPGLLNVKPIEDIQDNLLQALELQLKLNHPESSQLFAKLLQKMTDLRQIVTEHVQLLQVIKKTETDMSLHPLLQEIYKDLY", "assay": "PPARγ activation activity, Gal4-PPARγ2 LBD luciferase transfection assay in COST cells", "type": "cell-based", "settings": "Gal4-human PPARγ2 LBD luciferase reporter, 16 hours, rosiglitazone = 100%", "description": "The agonistic activity of the compounds of the invention on PPARγ was measured based on the transfection assay using COST cells (DS Pharma Biomedical Co., Ltd., Osaka, Japan), which are the cell line derived from the kidney of the African green monkey. COST cells were cultured under 5% CO2 concentration, and DMEM medium containing 10% fetal bovine serum, glutamic acid, and antibiotics was used as a medium.\nAs an expression vector, a chimera in which DNA binding domain of Gal4, which is a yeast transcription factor, and ligand binding domain of human PPARγ2 are fused, i.e., a fused product between the amino acids 1 to 147 of Gal4 transcription factor and the amino acids 182 to 505 of human PPARγ2, was used. Furthermore, as a reporter vector, a firefly luciferase containing five copies of Gal4 recognition sequence in the promoter region was used. Plasmid transfection to the cells was performed according to a method which uses jetPEI (trade name, manufactured by Funakoshi Co., Ltd., Tokyo, Japan). Furthermore, β-galactosidase expression vector was employed as an internal standard.\nAfter the transfection of the cells, the medium was replaced with a DMEM medium (containing 1% serum) added with the compound, and the cells were further cultured for 16 hours. After that, the luciferase activity and β-galactosidase activity in the cell lysis solution were measured.\nFor the present test, dimethyl sulfoxide (DMSO) was used for dissolution and dilution of the test compounds, and during the cell treatment, the DMSO concentration in DMEM medium (containing 1% serum) was adjusted to 0.1%. As a positive compound, rosiglitazone (trade name, manufactured by ALEXIS Corporation, Switzerland) was used. The luciferase activity (%) of the test compounds (1 to 30 μmol/L) was calculated when the luciferase activity of rosiglitazone (3 to 10 μmol/L) is 100% and the luciferase activity in the absence of the test compound is 0%. The 50% effective concentration of the test compound (EC50, 50% effect concentration) was calculated by using SAS Preclinical Package Ver 5.0 (trade name, manufactured by SAS institute Japan Co., Tokyo, Japan), which is a statistical analysis program.\nUnder the same condition, the PPARγ activation activity of telmisartan, i.e., EC50, was 1 to 5 μM. In addition, it was confirmed that compounds of Examples not shown in Table 2 also have PPARγ activation activity at a concentration of 30 μM."}}, "data": [{"smiles": "CCCCc1nc(C)n(-c2ncc(OCC)cn2)c(=O)c1Cc1ccc(-c2ccccc2S(=O)(=O)NC(=O)C2CCCC2)cc1", "note": "[Example 9, N-{4′-{[4-butyl-1-(5-ethoxypyrimidin-2-yl)-2-methyl-6-oxo-1,6-dihydropyrimidin-5-yl]methyl}biphenyl-2-ylsulfonyl}cyclopentanecarboxamide]", "values": [{"measurement": "inhibition at 0.1 µM", "setting": "[1]", "value": 100, "unit": "%"}, {"measurement": "EC50", "setting": "human PPARγ2", "value": 3.52, "unit": "µM"}]}]}
